Assay results from patent US20220233523A1, “ANTIBIOTIC POTENTIATION FOR NONTUBERCULOUS MYCOBACTERIAL DISEASE” (priority 2019, published 2022).
Marks after values point to notes of the source that are not given here.

Legend:
Type in all cases: cell-based, Mycobacterium avium subsp hominissuis 104 (MAH104)
[1] = tested on: intracellular MAH 104 in THP-1 macrophages; assay: Treatment of MAH inside human THP-1 macrophages with antibiotics and metabolites (CFU); conditions: for CFU/ml of macrophage lysate, 2 h: 2 h (baseline); for CFU/ml of macrophage lysate, 4 days: clarithromycin 16 μg/ml, amikacin 4 μg/ml, none 8.2 +/− 0.3 × 10^5
Experimental: Human THP-1 cell line (TIB-202) (American Type Culture Collection, Manassas, Va.) was cultivated in RPMI-1640 medium with 10% of heat-inactivated fetal bovine serum (FBS, GEMINI B10-PRODUCTS, Sacramento, Calif.), at 37° C. with 5% CO2. The THP-1 cells were maintained in 75 cm^2 tissue culture flasks. The differentiation of THP-1 monocytes into macrophages with PMA (phorbol 12-myristate 13-acetate) (SIGMA ALDRICH) and intracellular antibiotic killing assays were performed as previously described (Rojony et al., Clinical proteomics 2019; 16:39). […] As a negative control, differentiated THP-1 cells were incubated without any antibiotics and with no metabolites. THP-1 cells were replenished with new media containing antibiotics, or no antibiotic, every other day. Cells were lysed at 2 h (baseline) and day 4 and subsequently the number of viable bacteria was determined by CFU counting on 7H10 agar plates.

[2] = tested on: MAH (strain 104) in established biofilms; assay: Treatment of established MAH biofilms with antibiotics and metabolites (CFU); conditions: for killing capacity of clarithromycin: established M. avium 104 biofilms, 72 hours, FIG. 4A-D; for CFU/ml at 14 days: established biofilms, clarithromycin 16 μg/ml, amikacin 4 μg/ml, 0.05% propionic or butyric acid, 0.2% glycerol, none 4.2 +/− 0.5 × 10^8
Experimental: To assess the antibiotic tolerance of MAH biofilms to amikacin (4 μg/ml) and clarithromycin (16 μg/ml), biofilms were formed for 14 days as described herein. […] As a negative control, biofilms were incubated only with non-supplemented 7H9 without any antibiotics. […] Subsequently, 100 μl of 0.02% of Triton X-100 (final concentration 0.01%) was added to the established biofilms to mix, dilute and perform CFU analysis with the entire population of biofilms (attached and unattached).
Mycobacteria biofilms were first established and then treated or not treated with antibiotics. In parallel, biofilms were also co-treated with antibiotics and the targeted metabolites.

[3] = tested on: planktonic cultures of MAH104; assay: Growth of planktonic cultures in non-supplemented 7H9 with metabolites; conditions: propionic acid and butyric acid at 0.05%, glycerol 0.2%; 12 days at 37° C.
Experimental: MAH104 from 7H10 agar was used to make bacterial suspension in deionized water (10^9 CFU/ml) and then the suspension was centrifuged three times to wash the bacteria cells (3500 rpm for 20 minutes at 20° C.). After washing step, the bacterial suspensions were resuspended in 7H9 medium and suspensions were left alone to allow clumped bacteria to settle. The top half of the suspension was transferred to new tube and adjusted to 1×10^8 CFU/ml, using visual turbidity and optical density. […] These cultures were incubated at 37° C. for 12 days and the O.D.595 nm was measured at each 72 hours.
We determined the optimal concentration for the growth of MAH104 in non-supplemented 7H9 media since the amounts of these metabolites available in Biolog plates are unknown. […] The experiments were made in non-supplemented 7H9 medium (without any carbon sources: no OADC, no glycerol, and no tween 20 or 80) (FIG. 2A-C), which is the condition applied in the biofilms assay.

sessile MAH104 cells = assay: Growth and biofilm formation of pre-attached (sessile) cells in nutrient-limited media; conditions: for O.D.570 nm of sessile MAH104 (crystal violet, biofilm formation): 0.05% fatty acids in non-supplemented 7H9, 7 days, blank 0.091±0.007; for growth of sessile forms: 0.2% glycerol or 0.05% fatty acids in non-supplemented 7H9, 7 days at 37° C., O.D.595 nm
Experimental: (§1) Assays with biofilms incubated with propionic acid, butyric acid, and glycerol were performed to test whether these metabolites affect the formation of biofilms. All the experiments were made in non-supplemented 7H9. The effect of these metabolites was evaluated during biofilm formation, in pre-established biofilms and in M. avium cells pre-attached to polystyrene. To evaluate the effect of targeted metabolites during biofilm formation, mycobacteria suspensions were prepared and inoculated in 96 wells polystyrene plates, as already described, and biofilms were formed in the presence or not of the short-chain fatty acids at different concentrations (1%, 0.5%, 0.1%, 0.05% and 0.01%). For glycerol, only 0.2% was used. The biofilms were formed in 7H9 media at 37° C. for 7 days. For pre-established biofilms, MAH104 was again inoculated in 96 wells plates and biofilms were formed as described herein. […] It was also evaluated whether these metabolites could promote the growth of MAH104 cells present in biofilms through the measurement of […] every 24 hours. Finally, mycobacteria suspension with low density made in 7H9 broth (containing 1×10^6 bacteria/ml) were seeded in 96 wells polystyrene plates and incubated for 7 days at 37° C. […] The growth of pre-attached bacterial cells was followed every 24 hours through O.D.595 nm. The biofilm formation was evaluated by crystal violet.
Low mycobacterial cells density (10^6/ml) resuspended in non-supplemented 7H9 media were inoculated in 96-well plates and incubated for 7 days at 37° C. to allow the bacteria to attach into polystyrene. The supernatant was discarded to remove planktonic cells and pre-attached bacterium was incubated for 7 days in nutrient-limited media (non-supplemented 7H9). […] The growth of sessile mycobacteria was followed by O.D.595 nm measurement and biofilm formation was determined through crystal violet (O.D.570 nm), since the multiplication of bacteria cells is linked with the formation of biofilms. No growth was observed when sessile MAH104 cells were cultivated in non-supplemented 7H9 broth. […] It is also important to highlight that the O.D.570 nm value for sessile MAH104 forms incubated with non-supplemented 7H9 (O.D.570 nm=0.11±0.039) had no significant difference in comparison with the blank (O.D.570 nm=0.091±0.007) (P=0.37), showing no biofilm formation. […] FIG. 3A-D.

[4] = tested on: pre-established MAH104 biofilms; assay: Effect of metabolites on pre-established biofilms; conditions: for O.D.570 nm of pre-established biofilms (biofilm formation): 7 days at 37° C. with metabolite, 7H9 0.332±0.073
Experimental: as §1
Next, the effect of short-chain fatty acids and glycerol in pre-established biofilms was tested. In parallel, the O.D.595 nm of pre-established biofilm cultures were also measured for 7 days in order to check whether the bacterial cells in biofilm multiplied in the presence of the targeted substrates. […] In addition, we observed a significant increase in the biofilm formation (O.D.570 nm values) when mycobacteria biofilm was incubated with glycerol (7H9, O.D.570 nm=0.332±0.073; glycerol, O.D.570 nm=1.562±0.1751; P=0.0029).

Q: With `CCCC(=O)O` [Butyric acid] as the molecule, how does the “CFU/ml of macrophage lysate, 2 h” value [1] read?
A: 2.0 +/− 0.4 × 10^5 CFU/ml

Q: And the “CFU/ml of macrophage lysate, 4 days” value [1]?
A: 8.4 +/− 0.5 × 10^5 CFU/ml

Q: What about the “killing capacity of clarithromycin” value [2] of the same molecule?
A: increase

Q: What about the “CFU/ml at 14 days” value [2] of the same molecule?
A: 3.4 +/− 0.6 × 10^6* (1) CFU/ml

Q: And the “growth of planktonic MAH104 in non-supplemented 7H9” value [3]?
A: able to grow

Q: What about the “O.D.570 nm of sessile MAH104 (crystal violet, biofilm formation)” value (sessile MAH104 cells) of the same molecule?
A: 0.32±0.02

Q: And the “growth of sessile forms” value (sessile MAH104 cells)?
A: supported the growth of sessile forms

Q: And the “O.D.570 nm of pre-established biofilms (biofilm formation)” value [4]?
A: 0.490±0.121

Q: Which “CFU/ml of macrophage lysate, 2 h” value [1] does the source give for `OCC(O)CO` [Glycerol] here?
A: 3.1 +/− 0.4 × 10^5 CFU/ml

Q: And the “CFU/ml of macrophage lysate, 4 days” value [1]?
A: 2.0 +/− 0.5 × 10^5* (1) CFU/ml

Q: What about the “killing capacity of clarithromycin” value [2] of the same molecule?
A: increase

Q: And the “CFU/ml at 14 days” value [2]?
A: 1.1 +/− 0.3 × 10^9* CFU/ml

Q: What about the “growth of planktonic MAH104 in non-supplemented 7H9” value [3] of the same molecule?
A: able to support MAH104 growth

Q: And the “growth of sessile forms” value (sessile MAH104 cells)?
A: supported the growth of sessile forms

Q: What about the “O.D.570 nm of pre-established biofilms (biofilm formation)” value [4] of the same molecule?
A: 1.562±0.1751

Q: What about the “O.D.595 nm of pre-established biofilm cultures” value ([4]; after 24 hours of culture, 7H9 media 0.452±0.049) of the same molecule?
A: 0.609±0.069

Q: What does the source list for `CCC(=O)O` [Propionic acid]?
A: CFU/ml of macrophage lysate, 2 h [1]: 2.0 +/− 0.4 × 10^5 CFU/ml; CFU/ml of macrophage lysate, 4 days [1]: 8.0 +/− 0.2 × 10^5 CFU/ml; bacterial killing by clarithromycin and amikacin in macrophages after co-treatment ([1]; THP1 macrophages): increased significantly; killing capacity of clarithromycin [2]: increase; CFU/ml at 14 days [2]: 5.5 +/− 0.4 × 10^6*(1) CFU/ml; growth of planktonic MAH104 in non-supplemented 7H9 [3]: able to grow; O.D.570 nm of sessile MAH104 (crystal violet, biofilm formation) (sessile MAH104 cells): 0.25±0.01; growth of sessile forms (sessile MAH104 cells): supported the growth of sessile forms; O.D.570 nm of pre-established biofilms (biofilm formation) [4]: 0.3855±0.048
